Earlier results on one compound are cited in PMC5891061, “Electrophysiological mechanisms of vandetanib-induced cardiotoxicity: Comparison of action potentials in rabbit Purkinje fibers and pluripotent stem cell-derived cardiomyocytes” (PLoS ONE, 2018).

Series [1] deals with hiPSC-CMs. The conditions noted are these: cited from earlier work.
Series [2] addresses INa in hiPSC-CMs (Homo sapiens, UniProt Q14524). As to conditions: hiPSC-CMs compared with HEK293 cells; cited from earlier work.

Chain of INa in hiPSC-CMs (Q14524 212-1075 limits assumed): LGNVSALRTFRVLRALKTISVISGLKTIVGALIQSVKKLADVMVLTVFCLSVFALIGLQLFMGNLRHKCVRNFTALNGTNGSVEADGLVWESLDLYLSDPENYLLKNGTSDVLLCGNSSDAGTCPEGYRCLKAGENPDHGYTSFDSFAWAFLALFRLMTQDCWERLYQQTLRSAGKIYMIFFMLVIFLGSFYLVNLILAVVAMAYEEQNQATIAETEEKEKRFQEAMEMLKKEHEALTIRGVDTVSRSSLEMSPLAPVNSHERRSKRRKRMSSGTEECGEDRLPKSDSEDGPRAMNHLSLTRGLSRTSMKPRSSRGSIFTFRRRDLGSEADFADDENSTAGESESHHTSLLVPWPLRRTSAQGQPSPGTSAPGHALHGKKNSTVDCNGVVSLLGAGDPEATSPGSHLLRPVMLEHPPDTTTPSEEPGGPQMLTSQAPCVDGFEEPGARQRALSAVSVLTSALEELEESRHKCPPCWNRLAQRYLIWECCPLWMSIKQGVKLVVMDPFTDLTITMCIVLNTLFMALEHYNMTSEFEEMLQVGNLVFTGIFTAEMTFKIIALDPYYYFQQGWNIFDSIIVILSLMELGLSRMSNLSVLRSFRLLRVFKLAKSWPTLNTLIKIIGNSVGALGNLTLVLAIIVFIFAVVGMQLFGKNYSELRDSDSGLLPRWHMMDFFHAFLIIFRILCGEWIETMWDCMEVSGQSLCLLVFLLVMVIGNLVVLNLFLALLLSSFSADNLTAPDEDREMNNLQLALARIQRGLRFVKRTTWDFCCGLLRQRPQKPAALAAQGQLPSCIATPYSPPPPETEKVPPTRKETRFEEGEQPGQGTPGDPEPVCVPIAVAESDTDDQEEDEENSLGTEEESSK
Chain of INa in hiPSC-CMs (Q14524 1131-2016 limits assumed): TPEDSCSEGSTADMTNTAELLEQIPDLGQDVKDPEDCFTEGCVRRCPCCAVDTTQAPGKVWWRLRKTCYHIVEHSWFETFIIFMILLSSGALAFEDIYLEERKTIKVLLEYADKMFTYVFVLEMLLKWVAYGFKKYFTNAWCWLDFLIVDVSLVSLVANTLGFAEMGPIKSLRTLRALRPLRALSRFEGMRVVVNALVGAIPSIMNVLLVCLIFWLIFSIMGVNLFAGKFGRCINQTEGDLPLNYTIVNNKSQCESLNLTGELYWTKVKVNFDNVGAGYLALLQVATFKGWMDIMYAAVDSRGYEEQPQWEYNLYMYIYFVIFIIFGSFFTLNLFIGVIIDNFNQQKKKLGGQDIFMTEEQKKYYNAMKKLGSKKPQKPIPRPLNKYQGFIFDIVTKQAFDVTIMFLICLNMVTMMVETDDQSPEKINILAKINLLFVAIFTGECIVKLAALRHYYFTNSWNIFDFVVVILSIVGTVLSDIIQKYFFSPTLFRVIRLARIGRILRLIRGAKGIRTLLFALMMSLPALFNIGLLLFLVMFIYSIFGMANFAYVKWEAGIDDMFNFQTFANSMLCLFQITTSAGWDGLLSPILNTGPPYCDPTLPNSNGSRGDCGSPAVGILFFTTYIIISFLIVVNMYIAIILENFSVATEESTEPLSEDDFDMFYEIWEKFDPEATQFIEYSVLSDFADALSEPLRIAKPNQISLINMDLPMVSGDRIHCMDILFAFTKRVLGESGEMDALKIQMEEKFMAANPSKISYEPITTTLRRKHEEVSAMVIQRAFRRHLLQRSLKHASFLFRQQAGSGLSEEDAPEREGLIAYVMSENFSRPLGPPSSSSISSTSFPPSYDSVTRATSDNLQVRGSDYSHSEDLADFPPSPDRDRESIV

Turning to `CCc1nn(CCCN2CCN(c3cccc(Cl)c3)CC2)c(=O)n1CCOc1ccccc1` [nefazodone], the “Effect on Vmax” value in series [1] is listed as “significantly decreased”. Besides, in series [2], the “Block of INa, sensitivity” value is listed as “greater sensitivity than in HEK293 cells”.
